Source: paper PMC8594587 (Journal of medicinal chemistry, 2021)

What was measured:
[1] = system: HIV-2 ROD; assay: Anti-HIV-2 ROD activity in MT-4 cells, MTT method; assay type: cell-based; details: Human immunodeficiency virus 2, MT4, read-out: EC50 ROD
[2] = in vivo; details: Sprague-Dawley, rat, iv, 2 mg/kg
[3] = Acute toxicity test in Kunming mice; assay type: in vivo; details: Kunming, mouse, in vivo, po
[4] = system: Kunming mice; assay: Acute toxicity test in Kunming mice; assay type: in vivo; details: Kunming mice
[5] = system: HIV-1 F227L+V106A; assay type: cell-based; details: Human immunodeficiency virus 1, MT4, read-out: EC50 F227L+V106A
[6] = system: HIV-1 K103N+Y181C (RES056); assay: microbe, parasite or virus in culture; assay type: cell-based; details: Human immunodeficiency virus 1, MT4, read-out: EC50 RES056

Question: With `Cc1cc(C#N)cc(C)c1Oc1nc(NC2CCN(Cc3ccc(S(N)(=O)=O)cc3)CC2)ncc1-c1cccs1` [Compound 11a, 4-((4-((4-(4-cyano-2,6-dimethylphenoxy)-5-(thiophen-2-yl)pyrimidin-2-yl)amino)piperidin-1-yl)methyl)benzenesulfonamide] as the compound, how does the EC50 [1] read?
Answer: ≥ 33.4 µM

Question: For `Cc1cc(C#N)cc(C)c1Oc1nc(NC2CCN(Cc3ccc(S(N)(=O)=O)cc3)CC2)ncc1-c1ccsc1` [Compound 12a, 4-((4-((4-(4-cyano-2,6-dimethylphenoxy)-5-(thiophen-3-yl)pyrimidin-2-yl)amino)piperidin-1-yl)methyl)benzenesulfonamide], which EC50 [1] is on record?
Answer: > 6.12 µM

Question: For `Cc1cc(C#N)cc(C)c1Oc1nc(NC2CCN(Cc3ccc(S(C)(=O)=O)cc3)CC2)ncc1-c1ccco1` [Compound 13b, 4-((5-(furan-2-yl)-2-((1-(4-(methylsulfonyl)benzyl)piperidin-4-yl)amino)pyrimidin-4-yl)oxy)-3,5-dimethylbenzonitrile], which EC50 [1] is on record?
Answer: > 7.46 µM

Question: With `Cc1cc(C#N)cc(C)c1Oc1nc(NC2CCN(Cc3ccc(C(N)=O)cc3)CC2)ncc1-c1ccoc1` [Compound 14c, 4-((4-((4-(4-cyano-2,6-dimethylphenoxy)-5-(furan-3-yl)pyrimidin-2-yl)amino)piperidin-1-yl)methyl)benzamide] as the compound, how does the EC50 [1] read?
Answer: > 182 µM

Question: Which Tmax [2] does the source give for `Cc1cc(C#N)cc(C)c1Oc1nc(NC2CCN(Cc3ccc(C(N)=O)cc3)CC2)ncc1-c1ccncc1` [Compound 16c, 4-((4-((4-(4-cyano-2,6-dimethylphenoxy)-5-(pyridin-4-yl)pyrimidin-2-yl)amino)piperidin-1-yl)methyl)benzamide] here?
Answer: 1.98 min

Question: What about the EC50 [1] of the same compound?
Answer: > 36 µM

Question: And the LD50 at 2 weeks [3]?
Answer: > 2000 mg/kg

Question: What about the “acute toxicity, tolerability” value ([4]; single oral dose) of the same compound?
Answer: well-tolerated up to a dose of 2000 mg/kg with no acute toxicity

Question: And the body weight change ([4]; single oral dose 2000 mg/kg)?
Answer: no abnormality of body weight changed

Question: What about the “toxic symptoms or mortality” value ([4]; single oral dose 2000 mg/kg, subsequent two weeks) of the same compound?
Answer: did not exhibit any toxic symptoms or mortality

Question: Which results are given for `Cc1cc(C#N)cc(C)c1Oc1nc(Nc2ccc(C#N)cc2)nc(N)c1Br` [ETR, etravirine]?
Answer: EC50 [5]: 0.0269 ± 0.0023 µM; EC50 [6]: 0.0522 ± 0.0242 µM
